Assay results as given in patent publication US20110213033A1, “SKIN CONDITIONER” (Kabushiki Kaisha Soken, priority 1998, published 2011).

What was measured:
atopic skin = test: 2-hour moisture retention duration test on atopic skin; assay type: in vivo, human; details: FIGS. 21 through 31
Protocol: A 2-hour moisture retention duration test was performed on atopic skin.
Panelists: 7 persons with atopic skin
Test Method: Same as Test Example 2
Measurement Method: Same as Text Example 2
Test Apparatus: Same as Test Example 2

[1] = tested on: normal human skin fibroblasts; test: Collagen production recovery test on damaged fibroblasts; assay type: cell-based; details: hypoxanthine/xanthine oxidase damage; samples at final concentration 3.3%, 24 hours at 37° C.; FIG. 1
Protocol: A collagen production recovery test was conducted on damaged fibroblasts. Six to eight subcultures of normal human skin fibroblasts (Physicochemical Research Institute, Cell Development Bank BIRGB) were used in the test. […] Measurement of collagen production ability of a confluent in the steady state was performed according to the method of Webster, et al. based on the uptake of ^3H-proline into the produced collagen. […] Since proline is a main component of the amino acids that compose collagen, fibroblasts are cultured in a medium containing ^3H-proline, and the ^3H activity taken up into collagen in the cells is measured. Units are in d.p.m., and represent the number of […] of radioactivity released per minute.

Row | SMILES | moisture retention duration (30 to 120 minutes after application) (atopic skin) | collagen production ability of fibroblasts damaged by active oxygen (3H-proline uptake into collagen) [1]
1 | N=C(N)NCCC[C@H](N)C(=O)O [L-arginine] | continuation of moisture retention was observed | significantly improved
2 | NCCO [ethanolamine] | continuation of moisture retention was observed | significantly improved
